Measured values: patent US20250353852A1, “COMPOUNDS AND COMPOSITIONS THAT INHIBIT PIKFYVE” (Kineta, Inc., priority 2021, published 2025)

How the values were obtained:
[1] = test system: PIKFYVE TDP-43 yeast strain; assay: Propidium iodide viability assay, PIKFYVE TDP-43 yeast strain; type: cell-based; settings: for PIKfyve TDP-43 (active/inactive): PIKFYVE TDP-43 yeast model
Protocol: (§1) Generation of TDP-43 yeast model expressing human PIKfyve. Human PIKFYVE (“entry clone”) was cloned into […] (“destination vector”) according to standard Gateway cloning protocols (Invitrogen, Life Technologies). The resulting pAG416GPD-PIKFYVE plasmids were amplified in E. coli and plasmid identity confirmed by restriction digest and Sanger sequencing. […]+) (FIG. 2). Transformed yeast were plated on solid agar plates with complete synthetic media lacking uracil (CSM-ura) and containing 2% glucose. Individual colonies harboring the control or PIKFYVE TDP-43 plasmids were recovered. A plasmid containing wild-type TDP-43 under the transcriptional control of the GAL1 promoter and containing the […] as a selectable marker was transformed into the […]-PIKFYVE yeast strain (FIG. 1). Transformed yeast were plated on CSM-ura containing 2% glucose and 200 μg/mL G418 after overnight recovery in media lacking antibiotic. Multiple independent isolates were further evaluated for cytotoxicity and TDP-43 expression levels. Viability Assay. A control yeast strain with the wild-type yeast FAB1 gene and TDP-43 (“FAB1 TDP-43”, carries empty pAG416 plasmid), and the “PIKFYVE TDP-43” yeast strain, were assessed for toxicity using a propidium iodide viability assay. Both yeast strains were transferred from solid CSM-ura/2% glucose agar plates into 3 mL of liquid CSM-ura/2% glucose media for 6-8 hours at 30° C. with aeration. Yeast cultures were then diluted to an optical density at 600 nm wavelength (OD600) of 0.005 in 3 mL of CSM-ura/2% raffinose and grown overnight at 30° C. with aeration to an OD600 of 0.3-0.8. Log-phase overnight cultures were diluted to OD600 of 0.005 in CSM-ura containing either 2% raffinose or galactose and 150 μL dispensed into each well of a flat bottom 96-well plates. Compounds formulated in 100% dimethyl sulfoxide (DMSO) were serially diluted in DMSO and 1.5 μL diluted compound transferred to the 96-well plates using a multichannel pipet. Wells containing DMSO alone were also evaluated as controls for compound effects. Tested concentrations ranged from 15 μM to 0.11 μM. Cultures were immediately mixed to ensure compound distribution and covered plates incubated at 30° C. for 24 hours in a stationary, humified incubator. Upon the completion of incubation, cultures were assayed for viability using propidium iodide (PI) to stain for dead/dying cells. A working solution of PI was made where, for each plate, 1 μL of 10 mM PI was added to 10 mL of CSM-ura (raffinose or galactose). […] The overnight 96-well assay plate was then mixed with a multichannel pipet and 50 μL transferred to the PI-containing plate. This plate was then incubated for 30 minutes at 30° C. in the dark. A benchtop flow cytometer (Miltenyi MACSquant) was then used to assess red fluorescence (B2 channel), forward scatter, and side scatter (with following settings: gentle mix, high flow rate, fast measurement, 10,000 events). Intensity histograms were then gated for “PI-positive” or “PI-negative” using the raffinose and galactose cultures treated with DMSO as controls. The DMSO controls for raffinose or galactose-containing cultures were used to determine the window of increased cell death and this difference set to 100. All compounds were similarly gated and then compared to this maximal window to establish the percent reduction in PI-positive cells.

FAB1 TDP-43 yeast strain = assay: Propidium iodide viability assay, FAB1 TDP-43 control yeast strain; type: cell-based; settings: for FAB1 TDP-43 (active/inactive): FAB1 TDP-43 yeast model
Protocol: as §1

U2OS cells = assay: EEA1 assay (endosomal vesicle enlargement as surrogate readout of PIKFyve inhibition); type: cell-based; settings: 3 hours of treatment
Protocol: EEA1 Assay. Genetic or pharmacological disruption of PIKfyve activity results in enlargement of endosomal vesicles. This enlargement was utilized as a surrogate readout of PIKFyve inhibition for routine triage of PIKfyve inhibitors. U2OS cells grown in 96-well assay plates were treated with compound diluted in DMEM media containing 10% fetal bovine serum. After 3 hours of treatment, cells were fixed with paraformaldehyde, permeabilized with 0.2% Triton-X in phosphate buffered saline and stained against EEA1. During the secondary antibody staining, cells were also stained with CellMask DeepRed and Hoechst to detect cytoplasms and nuclei respectively. Endosomal structures were visualized using a high content imager at 40× magnification. Images were analyzed using a linear classifier algorithm integrating EEA1 spot size, intensity and texture trained on images of cells treated with the potent reference compound APY0201. Compound activity was calculated by subtracting the DMSO signal and calculating percentage activity relative to maximal APY0201 activity. IC50s were then calculated from concentration vs. % inhibition data by logistic regression.

[2] = target: full-length human PIKFYVE (Homo sapiens (Human), UniProt Q9Y2I7, L932S/Q1183K/Q995L/S1033A/S696N/T998S); assay: PIKfyve biochemical assay (ADP-Glo Kinase assay, Carna Biosciences); settings: class symbols
Procedure, shortened: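 N-terminal GST-fused full-length PIKFYVE from baculovirus, incubated with compound, substrate and ATP in 50 mM MOPS, 1 mM DTT, pH7.2 for 1 hour at room temperature. ADP formed detected by ADP-Glo luminescence; IC50 from four-parameter logistic fit of % inhibition.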

Chain of full-length human PIKFYVE (Q9Y2I7 whole entry S696N/L932S/Q995L/T998S/S1033A/Q1183K, the tested form may be a part): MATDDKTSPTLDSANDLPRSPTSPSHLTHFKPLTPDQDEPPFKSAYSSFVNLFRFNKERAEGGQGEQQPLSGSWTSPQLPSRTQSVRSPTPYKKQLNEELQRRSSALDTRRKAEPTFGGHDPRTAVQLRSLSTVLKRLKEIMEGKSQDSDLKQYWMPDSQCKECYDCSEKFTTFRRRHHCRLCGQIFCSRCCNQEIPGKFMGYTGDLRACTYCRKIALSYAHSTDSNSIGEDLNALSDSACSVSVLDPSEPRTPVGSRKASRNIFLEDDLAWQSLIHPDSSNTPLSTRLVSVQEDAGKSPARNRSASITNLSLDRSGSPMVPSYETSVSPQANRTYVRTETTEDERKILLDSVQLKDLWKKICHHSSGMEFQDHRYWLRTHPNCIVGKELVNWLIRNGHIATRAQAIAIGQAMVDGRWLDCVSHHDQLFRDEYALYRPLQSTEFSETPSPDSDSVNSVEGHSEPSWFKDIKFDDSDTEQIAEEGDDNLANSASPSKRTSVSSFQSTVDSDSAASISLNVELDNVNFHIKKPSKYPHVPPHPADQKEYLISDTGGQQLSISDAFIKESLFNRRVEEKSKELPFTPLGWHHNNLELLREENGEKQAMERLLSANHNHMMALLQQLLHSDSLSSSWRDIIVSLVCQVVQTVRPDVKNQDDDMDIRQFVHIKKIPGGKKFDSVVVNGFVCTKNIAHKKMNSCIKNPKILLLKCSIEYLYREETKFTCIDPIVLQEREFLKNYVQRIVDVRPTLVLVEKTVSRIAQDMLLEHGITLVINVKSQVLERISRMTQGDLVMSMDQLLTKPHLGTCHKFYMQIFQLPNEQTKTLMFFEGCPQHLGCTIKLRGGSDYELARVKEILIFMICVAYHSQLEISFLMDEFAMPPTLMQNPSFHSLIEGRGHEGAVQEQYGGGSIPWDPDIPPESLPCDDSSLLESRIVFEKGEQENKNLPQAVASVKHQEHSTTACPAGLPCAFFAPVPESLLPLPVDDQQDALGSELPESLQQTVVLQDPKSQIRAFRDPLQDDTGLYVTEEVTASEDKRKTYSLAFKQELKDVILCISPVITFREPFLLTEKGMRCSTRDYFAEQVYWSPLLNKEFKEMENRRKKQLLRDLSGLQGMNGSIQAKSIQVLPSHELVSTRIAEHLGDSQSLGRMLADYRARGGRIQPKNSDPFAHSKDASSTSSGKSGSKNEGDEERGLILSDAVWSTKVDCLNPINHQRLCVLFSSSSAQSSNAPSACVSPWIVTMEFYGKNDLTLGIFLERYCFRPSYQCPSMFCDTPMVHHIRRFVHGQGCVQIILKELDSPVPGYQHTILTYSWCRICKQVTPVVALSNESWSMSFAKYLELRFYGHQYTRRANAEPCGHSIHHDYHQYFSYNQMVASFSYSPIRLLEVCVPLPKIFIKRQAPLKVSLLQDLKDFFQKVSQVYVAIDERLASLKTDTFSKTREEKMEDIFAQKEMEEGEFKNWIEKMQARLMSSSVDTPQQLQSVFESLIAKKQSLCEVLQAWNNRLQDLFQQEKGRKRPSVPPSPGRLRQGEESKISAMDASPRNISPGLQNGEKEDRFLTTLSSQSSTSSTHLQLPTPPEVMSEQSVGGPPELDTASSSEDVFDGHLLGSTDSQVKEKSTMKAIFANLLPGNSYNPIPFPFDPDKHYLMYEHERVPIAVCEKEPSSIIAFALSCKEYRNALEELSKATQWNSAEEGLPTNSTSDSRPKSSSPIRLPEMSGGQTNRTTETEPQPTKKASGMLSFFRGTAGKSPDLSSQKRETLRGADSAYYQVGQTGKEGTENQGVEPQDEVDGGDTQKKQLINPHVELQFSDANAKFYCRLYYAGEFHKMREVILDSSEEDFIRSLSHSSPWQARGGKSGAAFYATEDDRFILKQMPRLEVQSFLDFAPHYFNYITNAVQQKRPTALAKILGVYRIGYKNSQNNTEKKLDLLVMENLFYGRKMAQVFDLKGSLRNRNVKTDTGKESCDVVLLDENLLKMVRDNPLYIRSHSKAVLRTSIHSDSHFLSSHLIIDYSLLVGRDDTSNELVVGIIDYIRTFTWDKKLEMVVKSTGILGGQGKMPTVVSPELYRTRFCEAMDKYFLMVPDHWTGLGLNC

Row | SMILES | PIKfyve TDP-43 (active/inactive) [1] | FAB1 TDP-43 (active/inactive) (FAB1 TDP-43 yeast strain) | IC50 (U2OS cells; Homo sapiens, class symbols) [nM] | IC50 [2] [nM] | further results
1 | Cc1cccc(/C=N/Nc2cc(N3CCOCC3)n3nc(-c4ccncc4)cc3n2)c1 [drawing 327] | Active | Inactive | – | – | –
2 | Cc1cccc(/C=N/Nc2cc(N3CCOCC3)n3nc(-c4ccncc4)cc3n2)c1 [APYO201, reference compound] | – | – | – | – | population of propidium iodide-positive dead cells in PIKFYVE TDP-43 ([1]; 0.23 μM, FIG. 6): reduced the population of propidium iodide-positive dead cells; viable cells in FAB1 TDP-43 (FAB1 TDP-43 yeast strain; across a range of compound concentrations (only 0.23 μM is shown), FIG. 5): no increase in viable cells
3 | Oc1cc(-c2ccccc2)nn1-c1cc(N2CCOCC2)n2nc(-c3ccncc3)cc2n1 [Compound 51, 1-(7-morpholino-2-(pyridin-4-yl)pyrazolo[1,5-a]pyrimidin-5-yl)-3-phenyl-1H-pyrazol-5-ol] | – | – | 1000 to 10000 | < 10 | –
4 | Cc1cccc(/C=N/Nc2cc(N3CC4CC3CO4)n3nc(-c4ccncc4)cc3n2)c1 (centres unmarked) [drawing 328] | Active | Inactive | – | – | –
5 | COc1nn(-c2cc(N3CCOCC3)n3nc(-c4ccncc4)cc3n2)cc1-c1ccccc1 [Compound 66, 4-(5-(3-methoxy-4-phenyl-1H-pyrazol-1-yl)-2-(pyridin-4-yl)pyrazolo[1,5-a]pyrimidin-7-yl)morpholine] | – | – | – | > 10000 | IC50 (U2OS cells; Homo sapiens, numeric values): > 3000 nM
6 | N#Cc1cc(N2CCOCC2)n2nc(-c3ccncc3)cc2n1 [drawing 332] | Inactive | Inactive | – | – | –
7 | Cc1cccc(-c2ccn(-c3cc(N4CCOCC4)n4nc(-c5ccncc5)cc4n3)n2)c1 [Compound 65, 4-(2-(pyridin-4-yl)-5-(3-(m-tolyl)-1H-pyrazol-1-yl)pyrazolo[1,5-a]pyrimidin-7-yl)morpholine] | – | – | 100 to 1000 | 10 to 100 | –
8 | Cc1cccc(/C=N/Nc2nc(N3CCOCC3)c3nc(-c4ccncc4)n(C)c3n2)c1 [drawing 329] | Active | Inactive | – | – | –
9 | c1ccc(-c2nccc(-c3cc(N4CCOCC4)n4nc(C5CCCO5)cc4n3)n2)cc1 (centres unmarked) [Compound 97, 4-(5-(2-phenylpyrimidin-4-yl)-2-(tetrahydrofuran-2-yl)pyrazolo[1,5-a]pyrimidin-7-yl)morpholine] | – | – | 1000 to 10000 | 10 to 100 | –
10 | CN(C)c1cc(N2CCOCC2)n2nc(-c3ccncc3)cc2n1 | Inactive | Inactive | – | – | –
11 | COc1nn(-c2cc(N3CCOCC3)n3nccc3n2)cc1-c1ccccc1 [Compound 77, 4-(5-(3-methoxy-4-phenyl-1H-pyrazol-1-yl)pyrazolo[1,5-a]pyrimidin-7-yl)morpholine] | – | – | – | > 10000 | IC50 (U2OS cells; class symbols): 1000 to 10000 nM
12 | Cn1ccc(-c2cccc(-c3cc(N4CCOCC4)n4nc(-c5ccncc5)cc4n3)c2)n1 [Compound 142, 4-(5-(3-(1-methyl-1H-pyrazol-3-yl)phenyl)-2-(pyridin-4-yl)pyrazolo[1,5-a]pyrimidin-7-yl)morpholine] | – | – | 1000 to 10000 | 10 to 100 | –
13 | Cn1c(-c2ccncc2)nc2c(N3CCOCC3)ncnc21 | Inactive | Inactive | – | – | –
